Measurements taken from ChEMBL document CHEMBL4184180, “Antitussive and expectorant activities of licorice and its major compounds” (2018).
Calls of active or inactive are those of the source. No cut-off for these calls is given here.

Assays:
Mus musculus [1] = experiment: Expectorant activity in ICR mouse assessed as increase in phenol red secretion in trachea at 50 mg/kg, po for 3 days followed by phenol red treatment at 30 mins post last dose measured after 30 mins by UV-Vis spectrophotometric assay relative to control; assay type: functional
Mus musculus [2] = experiment: Antitussive activity in ammonia liquor-induced cough ICR mouse model assessed as reduction in cough frequency at 50 mg/kg, po treated with ammonia 1 hr before and 1 to 5 hrs after test compound dosing measured for 3 mins relative to control; assay type: functional; set-up: scale not given: the % may be the effect or the level left
Mus musculus [3] = experiment: Antitussive activity in ammonia liquor-induced cough ICR mouse model assessed as reduction in cough frequency at 50 mg/kg, po treated with ammonia 1 hr before and 2.5 hrs after test compound dosing measured for 3 mins relative to control; assay type: functional
Mus musculus [4] = experiment: Antitussive activity in ammonia liquor-induced cough ICR mouse model assessed as reduction in cough frequency at 50 mg/kg, po treated with ammonia 1 hr before and 5 hrs after test compound dosing measured for 3 mins relative to control; assay type: functional
Mus musculus [5] = experiment: Antitussive activity in ammonia liquor-induced cough ICR mouse model assessed as reduction in cough frequency at 20 mg/kg, po treated with ammonia 1 hr before and 5 hrs after test compound dosing measured for 3 mins; assay type: functional, organism-based
Mus musculus [6] = experiment: Antitussive activity in ammonia liquor-induced cough ICR mouse model assessed as reduction in cough frequency at 20 mg/kg, po treated with ammonia 1 hr before and 2.5 hrs after test compound dosing measured for 3 mins; assay type: functional, organism-based
Mus musculus [7] = experiment: Antitussive activity in ammonia liquor-induced cough ICR mouse model assessed as reduction in cough frequency at 20 mg/kg, po treated with ammonia 1 hr before and 1 hr after test compound dosing measured for 3 mins; assay type: functional, organism-based
Mus musculus [8] = experiment: Antitussive activity in ammonia liquor-induced cough ICR mouse model assessed as reduction in cough frequency at 50 mg/kg, po treated with ammonia 1 hr before and 1 hr after test compound dosing measured for 3 mins relative to control; assay type: functional
Mus musculus [9] = experiment: Antitussive activity in ammonia liquor-induced cough ICR mouse model assessed as reduction in cough frequency at 50 mg/kg, po treated with ammonia 1 hr before and 1 hr after test compound dosing measured for 3 mins in presence of ATP-sensitive K+ channel blocker glibenclamide relative to control; assay type: functional
Mus musculus [10] = experiment: Expectorant activity in ICR mouse assessed as phenol red secretion in trachea at 20 to 50 mg/kg, po for 3 days followed by phenol red treatment at 30 mins post last dose measured after 30 mins by UV-Vis spectrophotometric assay relative to control; assay type: functional
Mus musculus [11] = experiment: Antitussive activity in ammonia liquor-induced cough ICR mouse model assessed as reduction in cough frequency at 50 mg/kg, po treated with ammonia 1 hr before and 1 hr after test compound dosing measured for 3 mins in presence of 5-HT receptor antagonist methysergide relative to control; assay type: functional
Mus musculus [12] = experiment: Antitussive activity in ammonia liquor-induced cough ICR mouse model assessed as reduction in cough frequency at 50 mg/kg, po treated with ammonia 1 hr before and 1 to 5 hrs after test compound dosing measured for 3 mins in presence of opioid receptor antagonist naloxone relative to control; assay type: functional, organism-based
Mus musculus [13] = experiment: Antitussive activity in ammonia liquor-induced cough ICR mouse model assessed as reduction in cough frequency at 20 mg/kg, po treated with ammonia 1 hr before and 1 to 5 hrs after test compound dosing measured for 3 mins relative to control; assay type: functional, organism-based
Mus musculus [14] = experiment: Antitussive activity in ammonia liquor-induced cough ICR mouse model assessed as increase in latent period at 20 mg/kg, po treated with ammonia 1 hr before and 1 to 5 hrs after test compound dosing measured at 1 hr post dose; assay type: functional, organism-based
Mus musculus [15] = experiment: Antitussive activity in ammonia liquor-induced cough ICR mouse model assessed as increase in latent period at 50 mg/kg, po treated with ammonia 1 hr before and 1 to 5 hrs after test compound dosing measured for 3 mins relative to control; assay type: functional
Mus musculus [16] = experiment: Antitussive activity in ammonia liquor-induced cough ICR mouse model assessed as increase in latent period at 50 mg/kg, po treated with ammonia 1 hr before and 1 hr after test compound dosing measured at 1 hr post dose; assay type: functional, organism-based

SMILES | Activity (Mus musculus [3]) | Activity (Mus musculus [4]) | Activity (Mus musculus [5]) | Activity (Mus musculus [6]) | Activity (Mus musculus [7]) | Activity (Mus musculus [8]) | further results
CC1(C)[C@@H](O)CC[C@]2(C)[C@H]3C(=O)C=C4[C@@H]5C[C@@](C)(C(=O)O)CC[C@]5(C)CC[C@@]4(C)[C@]3(C)CC[C@@H]12 [ENOXOLONE] |  |  |  |  |  |  | Activity (Mus musculus [1]): inactive; Activity (Mus musculus [2]): 27 - 40%
C=CC(C)(C)c1cc(/C=C/C(=O)c2ccc(O)cc2)c(OC)cc1O | inactive | inactive | inactive | inactive | inactive | inactive | 
CC(C)=CCc1cc(-c2coc3cc(O)c(CC=C(C)C)c(O)c3c2=O)cc(O)c1O | inactive | inactive | inactive | inactive | inactive | inactive | 
O=C1C[C@@H](c2ccc(O)cc2)Oc2cc(O)ccc21 [LIQUIRTIGENIN] |  | Active |  |  |  |  | fold change (FC) (Mus musculus [1]): 1.57; Activity (Mus musculus [9]): inactive; Activity (Mus musculus [10]): 156.7%; Activity (Mus musculus [11]): inactive; Activity (Mus musculus [12]): Active; Activity (Mus musculus [2]): 30 - 78%
O=C(/C=C/c1ccc(O)cc1)c1ccc(O)cc1O | Active | Active | Active | Active | inactive | inactive | Activity (Mus musculus [1]): inactive
COc1cc(O)ccc1/C=C/C(=O)c1ccc(O)cc1 | inactive | inactive | inactive | inactive | inactive | inactive | 
CC1(C)[C@@H](O[C@H]2O[C@H](C(=O)O)[C@@H](O)[C@H](O)[C@H]2O[C@@H]2O[C@H](C(=O)O)[C@@H](O)[C@H](O)[C@H]2O)CC[C@]2(C)[C@H]3C(=O)C=C4[C@@H]5C[C@@](C)(C(=O)O)CC[C@]5(C)CC[C@@]4(C)[C@]3(C)CC[C@@H]12 | inactive | inactive | inactive | inactive | inactive | inactive | Activity (Mus musculus [1]): inactive
O=C(/C=C/c1ccc(O[C@@H]2O[C@H](CO)[C@@H](O)[C@H](O)[C@H]2O)cc1)c1ccc(O)cc1O | inactive | inactive | inactive | inactive | inactive | inactive | 
O=C1C[C@@H](c2ccc(O[C@@H]3O[C@H](CO)[C@@H](O)[C@H](O)[C@H]3O[C@@H]3OC[C@](O)(CO)[C@H]3O)cc2)Oc2cc(O)ccc21 |  |  |  |  |  | 79.1% | fold change (FC) (Mus musculus [1]): 1.97; Activity (Mus musculus [13]): Active; Activity (Mus musculus [9]): 28.2%; Activity (Mus musculus [14]): inactive; fold change (FC) (Mus musculus [15]): 1.3 - 1.9; Activity (Mus musculus [10]): 196.6%; Activity (Mus musculus [11]): 30%; Activity (Mus musculus [12]): Active; Activity (Mus musculus [2]): 30 - 78%
CCN(CC)CCOCCOC(=O)C1(c2ccccc2)CCCC1.O=C(O)CC(O)(CC(=O)O)C(=O)O [CARBETAPENTANE CITRATE] | 53% | 50% |  |  |  | 58% | Activity (Mus musculus [16]): Active
COc1c(CC=C(C)C)c(O)cc2oc(=O)c(-c3ccc(O)cc3O)cc12 | inactive | inactive | inactive | inactive | inactive | inactive | 
O=C(/C=C/c1ccc(O[C@H]2O[C@@H](CO)[C@H](O)[C@@H](O)[C@@H]2O[C@@H]2OC[C@](O)(CO)[C@H]2O)cc1)c1ccc(O)cc1O | inactive | inactive | inactive | inactive | Active | Active | 
CC1(C)C=Cc2c(ccc3c2OC[C@@H](c2ccc(O)cc2O)C3)O1 | Active |  |  |  |  |  | 
CC(C)=CCc1cc2c(=O)cc(-c3ccc(O)cc3)oc2cc1O | inactive | inactive | inactive | inactive | inactive | inactive | 
O=C1C[C@@H](c2ccc(O[C@@H]3O[C@H](CO)[C@@H](O)[C@H](O)[C@H]3O)cc2)Oc2cc(O)ccc21 [LIQUIRITIN] | Active | Active |  |  |  |  | fold change (FC) (Mus musculus [1]): 2.5; Activity (Mus musculus [9]): inactive; Activity (Mus musculus [10]): 249.8%; Activity (Mus musculus [11]): inactive; Activity (Mus musculus [12]): Active; Activity (Mus musculus [2]): 30 - 78%
COc1ccccc1OCC(O)CO (stereo not given) [GUAIFENESIN] |  |  |  |  |  |  | fold change (FC) (Mus musculus [1]): 3; Activity (Mus musculus [10]): 299.5%
